SMILES strings stand for the structures.

Targets include D(2) dopamine receptor (Homo sapiens, UniProt P14416); D(1B) dopamine receptor (Homo sapiens, UniProt P21918); Histamine H2 receptor (Homo sapiens, UniProt P25021); D(1A) dopamine receptor (Homo sapiens, UniProt P21728); D(3) dopamine receptor (Rattus norvegicus, UniProt P19020); Histamine H4 receptor (Homo sapiens, UniProt Q9H3N8); Histamine H3 receptor (Cavia porcellus, UniProt Q9JI35); Histamine H1 receptor (Homo sapiens, UniProt P35367); Mu-type opioid receptor (Homo sapiens, UniProt P35372).

In assay [1] the target is 5-hydroxytryptamine receptor 1E (Homo sapiens, UniProt P28566).
In assay [2] the target is 5-hydroxytryptamine receptor 5A (Homo sapiens, UniProt P47898).
For assay [3], the target named is Alpha-2A adrenergic receptor (Homo sapiens, UniProt P08913).
Assay [4] concerns the target Gamma-aminobutyric acid receptor subunit alpha-1 (Rattus norvegicus, UniProt P62813).
The target in assay [5] is 5-hydroxytryptamine receptor 2C (Rattus norvegicus, UniProt P08909).
Assay [6] concerns the target Beta-1 adrenergic receptor (Rattus norvegicus, UniProt P18090).
Assay [7] deals with Kappa-type opioid receptor (Homo sapiens, UniProt P41145).
Assay [8] deals with Alpha-2B adrenergic receptor (Homo sapiens, UniProt P18089).
Assay [9] addresses Beta-2 adrenergic receptor (Rattus norvegicus, UniProt P10608).
In assay [10] the target is 5-hydroxytryptamine receptor 2A (Homo sapiens, UniProt P28223).
Assay [11] addresses 5-hydroxytryptamine receptor 6 (Homo sapiens, UniProt P50406).
Assay [12] concerns the target Muscarinic acetylcholine receptor M2 (Homo sapiens, UniProt P08172).
Assay [13] concerns the target Muscarinic acetylcholine receptor M5 (Homo sapiens, UniProt P08912).
In assay [14] the target is Alpha-2C adrenergic receptor (Homo sapiens, UniProt P18825).
Assay [15] addresses Delta-type opioid receptor (Homo sapiens, UniProt P41143).

Chain of D(1A) dopamine receptor (P21728 whole entry): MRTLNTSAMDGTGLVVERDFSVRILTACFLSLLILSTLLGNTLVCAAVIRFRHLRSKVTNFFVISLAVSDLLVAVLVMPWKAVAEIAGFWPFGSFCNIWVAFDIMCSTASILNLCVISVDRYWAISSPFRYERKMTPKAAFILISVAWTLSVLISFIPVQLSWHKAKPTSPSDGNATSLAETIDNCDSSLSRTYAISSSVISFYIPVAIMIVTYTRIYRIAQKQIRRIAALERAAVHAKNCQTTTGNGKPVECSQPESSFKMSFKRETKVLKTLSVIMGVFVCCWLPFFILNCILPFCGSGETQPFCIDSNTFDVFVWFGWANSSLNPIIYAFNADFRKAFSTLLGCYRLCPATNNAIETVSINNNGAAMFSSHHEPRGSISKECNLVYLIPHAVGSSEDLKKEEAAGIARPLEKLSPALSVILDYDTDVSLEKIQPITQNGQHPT
Chain of Beta-1 adrenergic receptor (P18090 whole entry): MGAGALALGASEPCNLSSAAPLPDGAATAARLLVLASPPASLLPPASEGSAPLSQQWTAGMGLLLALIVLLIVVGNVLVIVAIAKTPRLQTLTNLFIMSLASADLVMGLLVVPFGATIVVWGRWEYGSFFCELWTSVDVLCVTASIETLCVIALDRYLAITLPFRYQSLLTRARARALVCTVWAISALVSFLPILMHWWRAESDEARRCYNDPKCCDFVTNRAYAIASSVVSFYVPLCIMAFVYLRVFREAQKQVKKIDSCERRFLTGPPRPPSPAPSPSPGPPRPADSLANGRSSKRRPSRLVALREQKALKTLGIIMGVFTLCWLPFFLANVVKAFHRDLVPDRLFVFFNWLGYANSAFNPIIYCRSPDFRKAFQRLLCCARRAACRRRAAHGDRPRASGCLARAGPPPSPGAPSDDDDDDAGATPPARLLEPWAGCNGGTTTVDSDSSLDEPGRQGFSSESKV
Chain of Gamma-aminobutyric acid receptor subunit alpha-1 (P62813 whole entry): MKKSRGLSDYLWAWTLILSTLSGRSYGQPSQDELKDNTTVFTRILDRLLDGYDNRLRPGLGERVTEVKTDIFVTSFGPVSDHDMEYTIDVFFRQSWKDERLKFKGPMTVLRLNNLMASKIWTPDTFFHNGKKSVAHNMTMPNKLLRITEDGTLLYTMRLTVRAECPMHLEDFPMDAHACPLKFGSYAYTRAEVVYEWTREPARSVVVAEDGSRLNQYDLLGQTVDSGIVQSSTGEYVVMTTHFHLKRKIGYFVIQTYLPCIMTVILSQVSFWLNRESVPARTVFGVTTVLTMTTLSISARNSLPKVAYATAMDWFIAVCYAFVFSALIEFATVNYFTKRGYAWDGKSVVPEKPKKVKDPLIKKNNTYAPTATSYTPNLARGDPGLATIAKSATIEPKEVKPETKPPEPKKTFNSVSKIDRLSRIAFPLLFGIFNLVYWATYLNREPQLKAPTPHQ
Chain of 5-hydroxytryptamine receptor 6 (P50406 whole entry): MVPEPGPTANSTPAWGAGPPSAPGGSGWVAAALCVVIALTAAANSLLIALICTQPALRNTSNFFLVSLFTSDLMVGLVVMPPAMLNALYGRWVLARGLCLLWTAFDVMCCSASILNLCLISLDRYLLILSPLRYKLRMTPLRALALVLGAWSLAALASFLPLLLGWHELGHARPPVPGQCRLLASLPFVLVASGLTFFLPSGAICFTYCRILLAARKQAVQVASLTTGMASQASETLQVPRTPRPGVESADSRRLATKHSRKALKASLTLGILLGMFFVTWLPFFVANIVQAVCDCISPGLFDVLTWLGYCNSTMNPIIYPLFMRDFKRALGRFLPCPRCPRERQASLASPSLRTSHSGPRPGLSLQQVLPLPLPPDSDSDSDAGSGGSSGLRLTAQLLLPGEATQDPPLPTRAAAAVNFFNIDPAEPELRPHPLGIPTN
Chain of 5-hydroxytryptamine receptor 5A (P47898 whole entry): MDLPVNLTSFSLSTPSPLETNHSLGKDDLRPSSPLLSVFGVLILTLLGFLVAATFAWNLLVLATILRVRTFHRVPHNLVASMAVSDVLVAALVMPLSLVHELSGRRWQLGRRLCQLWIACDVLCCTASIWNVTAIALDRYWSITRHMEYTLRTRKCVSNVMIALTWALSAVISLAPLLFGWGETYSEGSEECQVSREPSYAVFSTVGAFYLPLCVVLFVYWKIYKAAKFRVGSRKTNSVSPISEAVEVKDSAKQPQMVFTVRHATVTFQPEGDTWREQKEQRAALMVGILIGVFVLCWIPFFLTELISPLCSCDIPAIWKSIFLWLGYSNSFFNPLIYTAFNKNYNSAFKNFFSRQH
Chain of Delta-type opioid receptor (P41143 whole entry): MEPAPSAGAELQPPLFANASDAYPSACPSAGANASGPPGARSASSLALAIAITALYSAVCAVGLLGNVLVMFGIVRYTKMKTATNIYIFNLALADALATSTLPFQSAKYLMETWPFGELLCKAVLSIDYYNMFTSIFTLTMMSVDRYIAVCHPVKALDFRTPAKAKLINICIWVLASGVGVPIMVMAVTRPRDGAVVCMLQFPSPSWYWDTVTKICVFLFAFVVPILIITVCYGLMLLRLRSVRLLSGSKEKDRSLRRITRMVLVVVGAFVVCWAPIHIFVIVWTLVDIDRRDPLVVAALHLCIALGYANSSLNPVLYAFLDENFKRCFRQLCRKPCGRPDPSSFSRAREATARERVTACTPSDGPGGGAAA
Chain of Histamine H2 receptor (P25021 whole entry): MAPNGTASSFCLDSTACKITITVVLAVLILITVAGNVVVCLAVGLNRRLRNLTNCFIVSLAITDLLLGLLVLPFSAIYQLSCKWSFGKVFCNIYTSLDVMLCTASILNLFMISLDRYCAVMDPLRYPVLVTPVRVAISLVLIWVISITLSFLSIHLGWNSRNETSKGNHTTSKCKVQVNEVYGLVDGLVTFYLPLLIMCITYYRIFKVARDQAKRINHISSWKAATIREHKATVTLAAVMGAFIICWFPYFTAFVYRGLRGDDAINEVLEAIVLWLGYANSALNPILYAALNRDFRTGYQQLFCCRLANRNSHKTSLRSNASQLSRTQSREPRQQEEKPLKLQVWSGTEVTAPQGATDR
Chain of D(1B) dopamine receptor (P21918 whole entry): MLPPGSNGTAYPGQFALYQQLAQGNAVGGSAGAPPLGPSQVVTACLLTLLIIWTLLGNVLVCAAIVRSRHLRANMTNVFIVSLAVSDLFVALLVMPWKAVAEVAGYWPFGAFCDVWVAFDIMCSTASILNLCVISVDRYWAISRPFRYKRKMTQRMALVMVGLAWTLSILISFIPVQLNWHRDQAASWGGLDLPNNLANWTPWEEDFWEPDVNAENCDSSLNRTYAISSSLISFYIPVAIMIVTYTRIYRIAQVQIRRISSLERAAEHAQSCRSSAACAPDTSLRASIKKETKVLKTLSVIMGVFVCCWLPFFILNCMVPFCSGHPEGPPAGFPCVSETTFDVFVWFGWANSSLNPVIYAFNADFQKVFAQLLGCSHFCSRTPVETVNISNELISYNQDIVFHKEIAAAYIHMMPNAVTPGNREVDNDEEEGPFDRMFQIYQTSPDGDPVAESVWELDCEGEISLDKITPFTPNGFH
Chain of Alpha-2B adrenergic receptor (P18089 whole entry): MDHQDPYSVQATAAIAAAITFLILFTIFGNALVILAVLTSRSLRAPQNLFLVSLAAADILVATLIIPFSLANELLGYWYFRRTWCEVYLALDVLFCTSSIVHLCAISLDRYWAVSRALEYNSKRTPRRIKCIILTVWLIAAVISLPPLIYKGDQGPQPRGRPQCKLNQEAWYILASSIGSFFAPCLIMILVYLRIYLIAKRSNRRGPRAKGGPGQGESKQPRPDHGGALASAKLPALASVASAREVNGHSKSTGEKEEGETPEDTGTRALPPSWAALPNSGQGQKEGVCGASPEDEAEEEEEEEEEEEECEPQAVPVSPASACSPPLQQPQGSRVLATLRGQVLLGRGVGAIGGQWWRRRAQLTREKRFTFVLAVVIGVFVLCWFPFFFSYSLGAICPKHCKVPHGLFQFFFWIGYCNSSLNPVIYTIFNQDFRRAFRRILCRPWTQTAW
Chain of Muscarinic acetylcholine receptor M2 (P08172 whole entry): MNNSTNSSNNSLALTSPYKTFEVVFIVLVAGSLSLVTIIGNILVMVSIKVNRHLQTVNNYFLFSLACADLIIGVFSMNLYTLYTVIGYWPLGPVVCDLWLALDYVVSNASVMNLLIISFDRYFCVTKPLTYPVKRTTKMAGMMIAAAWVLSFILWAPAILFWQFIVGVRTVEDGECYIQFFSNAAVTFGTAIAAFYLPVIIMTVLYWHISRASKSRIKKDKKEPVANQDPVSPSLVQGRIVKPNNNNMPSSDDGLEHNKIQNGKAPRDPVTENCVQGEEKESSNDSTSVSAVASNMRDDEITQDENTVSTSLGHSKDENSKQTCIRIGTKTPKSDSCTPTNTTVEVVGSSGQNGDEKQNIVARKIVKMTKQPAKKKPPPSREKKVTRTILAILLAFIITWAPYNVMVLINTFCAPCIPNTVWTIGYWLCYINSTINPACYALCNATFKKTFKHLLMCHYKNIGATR
Chain of Alpha-2C adrenergic receptor (P18825 whole entry): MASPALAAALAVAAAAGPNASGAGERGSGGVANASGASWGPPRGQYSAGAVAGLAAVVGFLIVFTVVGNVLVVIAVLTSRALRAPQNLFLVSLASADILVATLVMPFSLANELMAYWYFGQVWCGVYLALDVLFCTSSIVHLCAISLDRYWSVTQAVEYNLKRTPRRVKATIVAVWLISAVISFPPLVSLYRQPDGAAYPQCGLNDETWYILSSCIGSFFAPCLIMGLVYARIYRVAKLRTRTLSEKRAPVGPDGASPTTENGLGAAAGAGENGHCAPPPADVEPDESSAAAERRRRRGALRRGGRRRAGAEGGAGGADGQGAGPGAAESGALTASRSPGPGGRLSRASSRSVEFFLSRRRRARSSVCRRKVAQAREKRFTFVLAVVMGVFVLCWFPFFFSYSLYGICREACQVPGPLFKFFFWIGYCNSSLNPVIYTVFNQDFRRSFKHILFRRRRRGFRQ

`COc1ccccc1N1CCN(CCN(C(=O)C2CCCCC2)c2ccccn2)CC1`: the Ki (usually the equilibrium dissociation constant of an inhibitor or competing ligand from its target) was 0.94 µM at D(2) dopamine receptor; above 10 µM in assay [1]; above 10 µM on D(1B) dopamine receptor; above 10 µM in assay [2]; above 10 µM in assay [3]; above 10 µM at Histamine H2 receptor. Also, the Ki is above 10 µM on D(1A) dopamine receptor; above 10 µM in [4]; 0.37 µM at D(3) dopamine receptor; above 10 µM in [5]; above 10 µM at Histamine H4 receptor; above 10 µM in assay [6]. Besides, the Ki in [7] is 0.412 µM; in assay [8] it was above 10 µM; on Histamine H3 receptor, above 10 µM; in assay [9] it was above 10 µM; in [10], 6.26 µM; in [11], above 10 µM. The Ki in assay [12] is above 10 µM; in assay [13] it was above 10 µM; in assay [14], 2.57 µM; in assay [15], above 10 µM; at Histamine H1 receptor, above 10 µM; on Mu-type opioid receptor, above 10 µM.

(Values after BindingDB's records for doi:10.1007/s00213-006-0490-4 (Purdue University, 2006).)
